# Data from ChEMBL document CHEMBL1155701, “Two novel cyclic peptides with antifungal activity from the cyanobacterium Tolypothrix byssoidea (EAWAG 195)” (J Nat Prod, 2001).
# Non-standard residues stand in square brackets, D forms with d. Residues, ends and D or L forms follow the SMILES beside them. Dhb = C/C=C(\N)C(=O)O
# Tested on: Candida albicans
# Experiment: Antifungal activity against Candida albicans ATCC 26790
# Assay type: functional, organism-based
SMILES,MIC,IC50
C/C=C1\NC(=O)[C@H](Cc2ccccc2)NC(=O)[C@H]([C@@H](C)CC)NC(=O)[C@H]([C@@H](C)CC)NC(=O)[C@H]([C@@H](C)O)NC(=O)[C@@H](CC(C)C)NC(=O)[C@H](CCCNC(=N)N)NC(=O)[C@H]2CCCN2C(=O)[C@H](C(C)C)NC(=O)[C@H](C(C)C)NC(=O)[C@H]([C@@H](C)O)NC(=O)[C@H]([C@@H](C)OC(C)=O)NC(=O)[C@H](C(C)C)NC1=O,32 µg/mL,–
C/C=C1\NC(=O)[C@H](C(C)C)NC(=O)[C@H](Cc2ccccc2)NC(=O)[C@H](C(C)C)NC(=O)[C@H](C(C)C)NC(=O)[C@H](C(C)C)NC(=O)[C@H]([C@@H](C)O)NC(=O)[C@H]([C@@H](C)CC)NC(=O)[C@H]([C@@H](C)O)NC(=O)[C@H](C(C)C)NC(=O)[C@H](CCSC)NC(=O)[C@H](Cc2ccc(O)cc2)NC(=O)[C@H](CCCNC(=N)N)NC1=O (cyclo([Dhb]RYMVTITVVVFV)),64 µg/mL,–
Clc1ccc(COC(Cn2ccnc2)c2ccc(Cl)cc2Cl)c(Cl)c1 (stereo not drawn) [MICONAZOLE],–,8 µg/mL
